Measured values taken from patent EP2837626A1, “Indolinone derivatives as GRK5 modulators” (Max-Planck-Gesellschaft zur Förderung der Wissenschaften …, priority 2013, dated 2015).
pIC50: −log10 of the molar value.

Biological target: T1, GRK5 (Homo sapiens, UniProt P34947)
T1 construct: purchased Millipore
Experiment: IC50 determination of compounds inhibiting GRK5 by Millipore KinaseProfiler (radiometric filtration binding assay)
Format: biochemical
Conditions: 2 mg/mL casein, 40 minutes at room temperature
Procedure: IC50 values are determined by a radiometric based filtration binding assay, namely Millipore KinaseProfiler™. GRK5 is incubated with 8 mM MOPS pH 7.0, 0.2 mM EDTA, 2 mg/mL casein, 10 mM MgAcetate and […] (specific activity approx. 500 cpm/pmol, concentration as required). The reaction is initiated by the addition of the MgATP mix. After incubation for 40 minutes at room temperature, the reaction is stopped by the addition of 3 % phosphoric acid solution. 10 µL of the reaction is then spotted onto a P30 filtermat and washed three times for 5 minutes in 75 mM phosphoric acid and once in methanol prior to drying and scintillation counting.

T1 sequence (P34947 whole entry): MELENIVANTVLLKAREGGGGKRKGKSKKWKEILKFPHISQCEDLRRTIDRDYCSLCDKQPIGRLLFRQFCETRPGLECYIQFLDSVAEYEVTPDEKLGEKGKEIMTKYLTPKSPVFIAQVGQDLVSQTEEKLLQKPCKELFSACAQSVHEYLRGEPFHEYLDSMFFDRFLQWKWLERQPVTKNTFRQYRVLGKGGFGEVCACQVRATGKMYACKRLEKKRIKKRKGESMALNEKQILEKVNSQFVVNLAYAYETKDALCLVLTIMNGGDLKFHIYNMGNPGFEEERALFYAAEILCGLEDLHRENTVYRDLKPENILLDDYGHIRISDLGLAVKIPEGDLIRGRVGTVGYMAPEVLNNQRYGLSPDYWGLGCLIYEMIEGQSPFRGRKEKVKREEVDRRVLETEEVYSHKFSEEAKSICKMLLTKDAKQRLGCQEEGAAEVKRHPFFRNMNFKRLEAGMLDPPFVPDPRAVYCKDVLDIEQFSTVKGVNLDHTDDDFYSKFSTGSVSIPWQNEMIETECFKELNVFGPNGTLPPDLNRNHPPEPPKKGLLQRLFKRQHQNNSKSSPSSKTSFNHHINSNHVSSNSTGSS

Row | pIC50 | SMILES
1 | > 5.30 | CCC(NC(=O)c1ccc2c(c1)/C(=C/c1[nH]c(C)c(C(=O)N3CCN(C)CC3)c1C)C(=O)N2)c1ccc(Cl)cc1 (stereo not shown) [Compound 12, (3Z)-N-[1-(4-chlorophenyl)propyl]-3-({3,5-dimethyl-4-[(4-methylpiperazin-1-yl)carbonyl]-1H-pyrrol-2-yl}methylene)-2-oxoindoline-5-carboxamide]
2 | > 5.30 | Cc1[nH]c(/C=C2\C(=O)Nc3ccc(C(=O)N[C@H](C)c4ccccc4)cc32)c(C)c1C(=O)N1CCC[C@H]1CN1CCCC1 [Compound 16, (3Z)-3-[(3,5-dimethyl-4-{[(2S)-2-(pyrrolidin-1-ylmethyl)pyrrolidin-1-yl]carbonyl}-1H-pyrrol-2-yl)methylene]-2-oxo-N-[(1R)-1-phenylethyl]indoline-5-carboxamide]
3 | 4.70 to 5.30 | Cc1[nH]c(/C=C2\C(=O)Nc3ccc(C(=O)N[C@@H]4CCc5ccccc54)cc32)c(C)c1C(=O)N1CCC[C@@H]1CN1CCCC1 [Compound 30, (3Z)-N-[(1R)-2,3-dihydro-1H-inden-1-yl]-3-[(3,5-dimethyl-4-{[(2R)-2-(pyrrolidin-1-ylmethyl)pyrrolidin-1-yl]carbonyl}-1H-pyrrol-2-yl)methylene]-2-oxoindoline-5-carboxamide]

Biological target: T2, full length GRK5 (Homo sapiens, UniProt P34947)
T2 construct: 6/2 fold concentrated full length GRK5 (Millipore, #14-714) in reaction buffer is added to each well; purchased Millipore 14-714
Experiment: IC50 determination of compounds inhibiting GRK5 by ADP Glo Kinase Assay technology (Promega)
Format: biochemical
Conditions: 20 nM GRK5, 18.7 µM ATP, 10 µM casein, 12 concentrations, triplicates, read-out: GRK5 IC50

T2 sequence (P34947 whole entry): as above

Row | SMILES | pIC50
4 | CC[C@@H](NC(=O)c1ccc2c(c1)/C(=C/c1[nH]c(C)c(C(=O)N3CCN(C)CC3)c1C)C(=O)N2)c1ccccc1 [Compound 7, (3Z)-3-({3,5-dimethyl-4-[(4-methylpiperazin-1-yl)carbonyl]-1H-pyrrol-2-yl}methylene)-2-oxo-N-[(1R)-1-phenylpropyl]indoline-5-carboxamide] | 4.70 to 5.30
5 | Cc1[nH]c(/C=C2\C(=O)Nc3ccc(C(=O)N[C@H](C)c4ccccc4)cc32)c(C)c1C(=O)N1CCN(C)CC1 [Compound 15, (3Z)-3-({3,5-dimethyl-4-[(4-methylpiperazin-1-yl)carbonyl]-1H-pyrrol-2-yl}methylene)-2-oxo-N-[(1R)-1-phenylethyl]indoline-5-carboxamide] | > 5.30
6 | COc1ccc([C@@H](C)NC(=O)c2ccc3c(c2)/C(=C/c2[nH]c(C)c(C(=O)N4CCN(C)CC4)c2C)C(=O)N3)cc1 [Compound 21, (3Z)-3-({3,5-dimethyl-4-[(4-methylpiperazin-1-yl)carbonyl]-1H-pyrrol-2-yl}methylene)-N-[(1R)-1-(4-methoxyphenyl)ethyl]-2-oxoindoline-5-carboxamide] | > 5.30
7 | Cc1[nH]c(/C=C2\C(=O)Nc3ccc(C(=O)N[C@@H]4CCc5ccccc54)cc32)c(C)c1C(=O)N1CCC[C@@H]1CN1CCCC1 [Compound 30, (3Z)-N-[(1R)-2,3-dihydro-1H-inden-1-yl]-3-[(3,5-dimethyl-4-{[(2R)-2-(pyrrolidin-1-ylmethyl)pyrrolidin-1-yl]carbonyl}-1H-pyrrol-2-yl)methylene]-2-oxoindoline-5-carboxamide] | 4.70 to 5.30
8 | Cc1ccc([C@@H](C)NC(=O)c2ccc3c(c2)/C(=C/c2[nH]c(C)c(C(=O)N4CCN(C)CC4)c2C)C(=O)N3)cc1 [Compound 32, (3Z)-3-({3,5-dimethyl-4-[(4-methylpiperazin-1-yl)carbonyl]-1H-pyrrol-2-yl}methylene)-N-[(1R)-1-(4-methylphenyl)ethyl]-2-oxoindoline-5-carboxamide] | > 5.30
9 | Cc1cccc(C(C)NC(=O)c2ccc3c(c2)/C(=C/c2[nH]c(C)c(C(=O)N4CCN(C)CC4)c2C)C(=O)N3)c1 (stereo not shown) [Compound 51, (3Z)-3-({3,5-dimethyl-4-[(4-methylpiperazin-1-yl)carbonyl]-1H-pyrrol-2-yl}methylene)-N-[1-(3-methylphenyl)ethyl]-2-oxoindoline-5-carboxamide] | 4.70 to 5.30
10 | CC[C@@H](NC(=O)c1ccc2c(c1)/C(=C/c1[nH]c(C)c(C(=O)NCCN(CC)CC)c1C)C(=O)N2)c1ccccc1 [Compound 61, (3Z)-3-[(4-{[2-(diethylamino)ethyl]carbamoyl}-3,5-dimethyl-1H-pyrrol-2-yl)methylene]-2-oxo-N-[(1R)-1-phenylpropyl]indoline-5-carboxamide] | > 5.30
11 | Cc1[nH]c(/C=C2\C(=O)Nc3ccc(C(=O)N[C@H](C)c4ccc(Cl)cc4)cc32)c(C)c1C(=O)N1CCCC1 [Compound 67, (3Z)-N-[(1R)-1-(4-chlorophenyl)ethyl]-3-{[3,5-dimethyl-4-(pyrrolidin-1-ylcarbonyl)-1H-pyrrol-2-yl]methylene}-2-oxoindoline-5-carboxamide] | > 5.30
12 | CC[C@@H](NC(=O)c1ccc2c(c1)/C(=C/Nc1ccc(CN3CCCCC3)cc1)C(=O)N2)c1ccccc1 [Compound 69, (3Z)-2-oxo-N-[(1R)-1-phenylpropyl]-3-({[4-(piperidin-1-ylmethyl)phenyl]amino}methylene)-indoline-5-carboxamide] | > 5.30
13 | C[C@@H](NC(=O)c1ccc2c(c1)/C(=C/Nc1ccc(CN3CCCCC3)cc1)C(=O)N2)c1ccccc1 [Compound 78, (3Z)-2-oxo-N-[(1R)-1-phenylethyl]-3-({[4-(piperidin-1-ylmethyl)phenyl]amino}methylene)indoline-5-carboxamide] | > 5.30
14 | COc1cccc([C@@H](C)NC(=O)c2ccc3c(c2)/C(=C/Nc2ccc(CN4CCCCC4)cc2)C(=O)N3)c1 [Compound 79, (3Z)-N-[(1R)-1-(3-methoxyphenyl)ethyl]-2-oxo-3-({[4-(piperidin-1-ylmethyl)phenyl]amino}methylene)indoline-5-carboxamide] | > 5.30
15 | C[C@@H](NC(=O)c1ccc2c(c1)/C(=C/Nc1ccc(CN3CCCCC3)cc1)C(=O)N2)c1cccc(Cl)c1 [Compound 80, (3Z)-N-[(1R)-1-(3-chlorophenyl)ethyl]-2-oxo-3-({[4-(piperidin-1-ylmethyl)phenyl]amino}methylene)indoline-5-carboxamide] | > 5.30

Now from value to molecule:

Row | pIC50 | SMILES
16 | > 5.30 | Cc1[nH]c(/C=C2\C(=O)Nc3ccc(C(=O)O)cc32)c(C)c1C(=O)NCCN1CCCC1 [Compound 2]
17 | > 5.30 | CC[C@@H](NC(=O)c1ccc2c(c1)/C(=C/c1[nH]c(C)c(C(=O)NCCN3CCCC3)c1C)C(=O)N2)c1ccccc1 [Compound 6, (3Z)-3-({3,5-dimethyl-4-[(2-pyrrolidin-1-ylethyl)carbamoyl]-1H-pyrrol-2-yl}methylene)-2-oxo-N-[(1R)-1-phenylpropyl]indoline-5-carboxamide]
18 | > 5.30 | CCC(NC(=O)c1ccc2c(c1)/C(=C/c1[nH]c(C)c(C(=O)NCCN3CCCC3)c1C)C(=O)N2)c1ccc(F)c(F)c1 (stereo not shown) [Compound 10, (3Z)-N-[1-(3,4-difluorophenyl)propyl]-3-({3,5-dimethyl-4-[(2-pyrrolidin-1-ylethyl)carbamoyl]-1H-pyrrol-2-yl}methylene)-2-oxoindoline-5-carboxamide]
19 | > 5.30 | CCC(NC(=O)c1ccc2c(c1)/C(=C/c1[nH]c(C)c(C(=O)NCCN3CCCC3)c1C)C(=O)N2)c1cccc(Cl)c1 (stereo not shown) [Compound 11, (3Z)-N-[1-(3-chlorophenyl)propyl]-3-({3,5-dimethyl-4-[(2-pyrrolidin-1-ylethyl)carbamoyl]-1H-pyrrol-2-yl}methylene)-2-oxoindoline-5-carboxamide]
20 | > 5.30 | CCC(NC(=O)c1ccc2c(c1)/C(=C/c1[nH]c(C)c(C(=O)N3CCN(C)CC3)c1C)C(=O)N2)c1ccc(Cl)cc1 (stereo not shown) [Compound 12, (3Z)-N-[1-(4-chlorophenyl)propyl]-3-({3,5-dimethyl-4-[(4-methylpiperazin-1-yl)carbonyl]-1H-pyrrol-2-yl}methylene)-2-oxoindoline-5-carboxamide]
21 | > 5.30 | CCC(NC(=O)c1ccc2c(c1)/C(=C/c1[nH]c(C)c(C(=O)NCCN3CCCC3)c1C)C(=O)N2)c1ccc(Cl)cc1 (stereo not shown) [Compound 13, (3Z)-N-[1-(4-chlorophenyl)propyl]-3-({3,5-dimethyl-4-[(2-pyrrolidin-1-ylethyl)carbamoyl]-1H-pyrrol-2-yl}methylene)-2-oxoindoline-5-carboxamide]
22 | > 5.30 | Cc1[nH]c(/C=C2\C(=O)Nc3ccc(C(=O)N[C@H](C)c4ccccc4)cc32)c(C)c1C(=O)N1CCCCC1 [Compound 14, (3Z)-3-{[3,5-dimethyl-4-(piperidin-1-ylcarbonyl)-1H-pyrrol-2-yl]methylene}-2-oxo-N-[(1R)-1-phenylethyl]indoline-5-carboxamide]
